Reference: US20230414565A1, “COMPOSITIONS AND METHODS FOR TREATING HEMATOLOGICAL MALIGNANCIES” (Magenta Therapeutics, Inc., priority 2022, published 2023)
Read-outs that look alike come from different tables or passages of the source.

What was measured:
MMP-9 = assay: Phase 1 clinical trial: plasma MMP-9 and TIMP-1, sandwich immunoassay; format: in vivo, human; conditions: MGTA-145 monotherapy, all six doses
Protocol: (§1) Additionally, blood samples were analyzed by multicolor flow cytometry to quantify changes in expression of neutrophil activation markers such as L-selectin, CD11b, CD18, and CD66. Additionally, matrix metalloproteinase 9 (MMP-9), a neutrophil protease believed to mediate mobilization in response to MGTA-145, as well as its cognate inhibitor, TIMP-1, were quantified in plasma samples collected at the same time points by sandwich immunoassay.

[1] = test system: neutrophil activation markers (L-selectin, CD11b, CD18, CD66); assay: Phase 1 clinical trial: neutrophil activation markers, multicolor flow cytometry; format: in vivo, human; conditions: MGTA-145 monotherapy
Protocol: as §1

CXCR2 = biological target: T1, CXCR2 (Homo sapiens, UniProt P25025); assay: Phase 1 clinical trial: CXCR2 expression on peripheral blood neutrophils; format: in vivo
T1 construct: endogenous in cells; host or cells: peripheral blood neutrophils of trial subjects
T1 sequence (P25025 1-360): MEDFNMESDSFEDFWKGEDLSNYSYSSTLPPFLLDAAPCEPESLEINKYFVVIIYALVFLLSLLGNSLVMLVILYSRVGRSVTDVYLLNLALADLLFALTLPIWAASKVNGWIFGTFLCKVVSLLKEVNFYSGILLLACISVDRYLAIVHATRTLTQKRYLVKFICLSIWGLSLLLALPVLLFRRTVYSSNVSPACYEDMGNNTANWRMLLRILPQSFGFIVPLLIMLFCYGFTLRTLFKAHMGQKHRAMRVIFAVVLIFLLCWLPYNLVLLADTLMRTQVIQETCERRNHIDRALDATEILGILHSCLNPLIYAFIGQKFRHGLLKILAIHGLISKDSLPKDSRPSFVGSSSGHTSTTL

CD45.2 mice = assay: Primary and secondary transplantation of mobilized mouse cells at limit dilution (CRU); format: in vivo; conditions: FIG. 25, right panel; versus the other cohorts
Description: Mice (CD45.1) were mobilized according to the scheme shown in FIG. 24 and mobilized cells transplanted into CD45.2 mice at limit dilution.

[2] = test system: hematopoietic stem and progenitor cell mobilization; conditions: U.S. Pat. Nos. 6,080,398 and 6,447,766; cited from earlier work
[3] = Phase 1 clinical trial: treatment emergent adverse events; conditions: Part A; MGTA-145 0.0075-0.3 mg/kg, n = 24
CD34+ cells [4] = assay: Phase 1 Part D: apheresis collection yield of CD34+ cells
Protocol: (§2) The dose of MGTA-145 was one of 0.0075 mg/kg, 0.015 mg/kg, 0.03 mg/kg, 0.075 mg/kg, 0.15 mg/kg, or 0.3 mg/kg. […] The dose of MGTA-145 was one of 0.015 mg/kg, 0.03 mg/kg, 0.075 mg/kg, or 0.15 mg/kg. […] The dose of MGTA-145 was one of 0.03 mg/kg or 0.075 mg/kg.
(§3) The table documents the body weight of each subject, the total CD34+ cells that were obtained through the apheresis procedure, the normalized CD34+ cells/kg of body weight, and the percentage of CD34+ cells that were CD90+CD45RA−.

CD34+CD90+CD45RA− cells [5] = assay: Phase 1 Part D: apheresis collection of CD34+CD90+CD45RA− cells; conditions: for CD90+/kg (CD34+CD90+CD45RA− cells), mean / CD90+/kg (CD34+CD90+CD45RA− cells), median: 2 h stagger after plerixafor; for CD90+ (% of CD34+): 2 h stagger after plerixafor (Table 13)
Protocol: as §2, §3

neutrophils = assay: Phase 1 clinical trial: mobilization of neutrophils, automated hematology analyzer; conditions: MGTA-145 monotherapy
Protocol: as §2
(§4) Mobilization of white blood cells (WBCs), neutrophils, lymphocytes, basophils, and eosinophils was quantified by automated hematology analyzer.

white blood cells (WBCs) = assay: Phase 1 clinical trial: mobilization of white blood cells, automated hematology analyzer; conditions: MGTA-145 monotherapy
Protocol: as §2, §4

CD34+ cells [6] = assay: Phase 1 clinical trial: mobilization of CD34+ cells into peripheral blood, multicolor flow cytometry
CD34+CD90+CD45RA− cells [7] = assay: Phase 1 clinical trial: mobilization of CD34+CD90+CD45RA− cells into peripheral blood, multicolor flow cytometry
Protocol: as §2, §4

[8] = test system: graft cell subsets (T cells, B cells, NK cells, TNC); conditions: cited from earlier work
CD34+ cells [9] = conditions: historical plerixafor alone data, Devine et al., Blood 2008; cited from earlier work
[10] = test system: neutrophil activation markers (L-selectin, CD11b, CD18, CD66); conditions: 5 days of G-CSF; Falanga et al., Blood 1999; cited from earlier work
[11] = G-CSF; Pulsiper et al. (2009) Blood; cited from earlier work
[12] = 0.03 mg/kg MGTA-145 and plerixafor (staggered 2 hour)
[13] = higher doses (0.075, 0.15, 0.3 mg/kg), 2 hours post administration
[14] = lower doses (0.0075, 0.015, 0.03 mg/kg), between 1 and 2 hours post administration
[15] = MGTA-145 monotherapy 0.03 mg/kg
[16] = MGTA-145 monotherapy, the other doses
[17] = Part A, MGTA-145 on Day 1, 0.03 mg/kg
[18] = Part A, MGTA-145 on Day 1, 0.3 mg/kg
[19] = Chen et al., 2019, 2 LP for plerixafor (N = 50+), 1 LP for G-CSF (N = 112+)
[20] = Devine et al, 2008, yield of 1 LP, plerixafor N = 24, G-CSF N = 8
[21] = Part B, pooled placebo + plerixafor on Day 1
[22] = Part C, pooled placebo + plerixafor on Day 1
[23] = Pooled B + C, pooled placebo + plerixafor on Day 1
[24] = plerixafor alone, MGTA-145 dose 0
[25] = G-CSF, N = 78 healthy donors, Chaidos et al, Blood 2012

Molecule: MGTA-145: CXCR2 agonist; truncated Gro-β with deletion of the first four N-terminal amino acids (SEQ ID NO: 2)
- Molar ratio MMP-9:TIMP-1 (MMP-9): rapid increase 30 minutes post-administration
- Plasma levels of MMP-9 (MMP-9): increased sharply within 30 minutes post-administration
- Change relative to baseline of neutrophil activation marker CD66 ([1]; all doses except the highest (0.3 mg/kg)): < 2 fold
- Change relative to baseline of neutrophil activation marker L-selectin ([1]; all six doses): < 2 fold
- Change relative to baseline of neutrophil activation markers CD11b and CD18 ([1]; all six doses): < 2 fold
- CXCR2 expression recovery prior to the second dose (CXCR2; MGTA-145 0.07 mg/kg, staggered dosing, two consecutive days): ~80 % of baseline
- CXCR2 on peripheral neutrophils (CXCR2; MGTA-145 monotherapy): rapid downregulation of its target receptor, CXCR2, on peripheral neutrophils, followed by recovery over 24 hours
- Engraftment rates, secondary transplantation (CD45.2 mice): vastly improved engraftment rates
- Potency of hematopoietic stem and progenitor cell mobilization [2]: potency superior to that of Gro-β by multiple orders of magnitude
- Back pain/Musculoskeletal pain [3]: 19 n (%)
- Subjects with any drug related TEAE [3]: 19 n (%)
- CD34+/kg, median (CD34+ cells [4]; [12]): 4.3 ×10^6 cells
- Total CD34+ Yield, median (CD34+ cells [4]; [12]): 321 (239-500) ×10^6 cells
- CD34+/kg, mean (CD34+ cells [4]; MGTA-145 0.03 mg/kg, 2 h stagger after plerixafor): 4.1 ×10^6
- CD90+/kg (CD34+CD90+CD45RA− cells), mean (CD34+CD90+CD45RA− cells [5]; MGTA-145 0.03 mg/kg): 1.3 ×10^6
- CD90+/kg (CD34+CD90+CD45RA− cells), median (CD34+CD90+CD45RA− cells [5]; MGTA-145 0.03 mg/kg): 1.5 ×10^6
- CD90+ (% of CD34+) (CD34+CD90+CD45RA− cells [5]; MGTA-145 0.03 mg/kg, 0.03 mg/kg): 31%
- CD90+/kg (CD34+CD90+CD45RA− cells), mean (CD34+CD90+CD45RA− cells [5]; MGTA-145 […]): 1.4 ×10^6
- CD90+/kg (CD34+CD90+CD45RA− cells), median (CD34+CD90+CD45RA− cells [5]; MGTA-145 […]): 1.2 ×10^6
- CD90+ (% of CD34+) (CD34+CD90+CD45RA− cells [5]; MGTA-145 […], […]): 37%
- Initial plateau of neutrophil mobilization (neutrophils; [13]): 5-8 ×10^3 cells/μL
- Peak mobilization of neutrophils (neutrophils; [14]): 13-15 ×10^3 cells/μL
- Initial plateau of WBC mobilization (white blood cells (WBCs); [13]): 6-10 ×10^3 cells/μL
- Peak mobilization of WBCs (white blood cells (WBCs); [14]): 15-17 ×10^3 cells/μL
- Fold increase of CD34+ cells (CD34+ cells [6]; [15]): 7 fold
- Peak concentration of CD34+ cells (CD34+ cells [6]; [15]): ~10 cells/μL
- Time of peak CD34+ mobilization post administration (CD34+ cells [6]; MGTA-145 monotherapy, single dose, across the six doses 0.0075-0.3 mg/kg): about 30 minutes
- Fold increase of CD34+ cells (CD34+ cells [6]; [16]): 2-3 fold
- Peak concentration of CD34+ cells (CD34+ cells [6]; MGTA-145 monotherapy, the other doses (0.0075, 0.015, 0.075, 0.15, 0.3 mg/kg)): ~5 cells/μL
- Peak CD34+ (#/μL) Median (CD34+ cells [6]; [17]): 12 #/μL
- Percent ≥20/μL peak CD34+ (CD34+ cells [6]; [17]): 0%
- Peak CD34+ (#/μL) Median (CD34+ cells [6]; [18]): 3 #/μL
- Percent ≥20/μL peak CD34+ (CD34+ cells [6]; [18]): 0%
- Fold increase of CD34+CD90+CD45RA− cells (CD34+CD90+CD45RA− cells [7]; [15]): ~8.3 fold
- Peak concentration of CD34+CD90+CD45RA− cells (CD34+CD90+CD45RA− cells [7]; [15]): ~3 cells/μL
- Time of peak CD34+CD90+CD45RA− mobilization post administration (CD34+CD90+CD45RA− cells [7]; MGTA-145 monotherapy, six doses): 30 min
- Fold increase of CD34+CD90+CD45RA− cells (CD34+CD90+CD45RA− cells [7]; [16]): 2-3.5 fold
- Peak concentration of CD34+CD90+CD45RA− cells (CD34+CD90+CD45RA− cells [7]; [16]): 1-1.6 cells/μL

Molecule: Gro-β T N65D: Gro-β T variant with aspartic acid in place of asparagine at position 65
- Potency of hematopoietic stem and progenitor cell mobilization [2]: potency that is substantially greater than that of Gro-β T

Molecule: c1cc(CN2CCCNCCNCCCNCC2)ccc1CN1CCCNCCNCCCNCC1 [plerixafor, 1,1′-[1,4-phenylenebis(methylene)]-bis-1,4,8,11-tetra-azacyclotetradecane]
- Graft CD3+, median [8, 19]: 6e+08 kg⁻¹
- Graft CD4+, median [8, 19]: 3.6e+08 kg⁻¹
- Graft CD8+, median [8, 19]: 2.2e+08 kg⁻¹
- Graft CD19+, median [8, 19]: 1.5e+08 kg⁻¹
- Graft CD34+, median [8, 19]: 4.7e+06 kg⁻¹
- Graft CD56+, median [8, 19]: 4e+07 kg⁻¹
- Graft CD3+, median [8, 20]: 4.6e+08 kg⁻¹
- Graft CD4+, median [8, 20]: 3.2e+08 kg⁻¹
- Graft CD8+, median [8, 20]: 1.3e+08 kg⁻¹
- Graft CD34+, median [8, 20]: 2.9e+06 kg⁻¹
- Graft CD56+, median [8, 20]: 3e+07 kg⁻¹
- Graft CD19+, median ([8]; Devine et al, 2008, yield of 1 LP, plerixafor N = 24): 1e+08 kg⁻¹
- Patients with peak CD34+ ≥20 cells/μL (CD34+ cells [9]): 28%
- Patients with peak CD34+ ≥40 cells/μL (CD34+ cells [9]): 4%
- Peak CD34+ (#/μL) Median (CD34+ cells [6]; Part B, plerixafor alone, MGTA-145 dose 0): 26 #/μL
- Peak CD34+ (#/μL) Median (CD34+ cells [6]; [21]): 26 #/μL
- Percent ≥20/μL peak CD34+ (CD34+ cells [6]; [21]): 64%
- Peak CD34+ (#/μL) Median (CD34+ cells [6]; Part C first day, plerixafor alone, MGTA-145 dose 0): 18 #/μL
- Peak CD34+ (#/μL) Median (CD34+ cells [6]; [22]): 18 #/μL
- Percent ≥20/μL peak CD34+ (CD34+ cells [6]; [22]): 0%
- Percent ≥20/μL peak CD34+ (CD34+ cells [6]; Part C, pooled placebo + plerixafor on Day 2): 50%
- Peak CD34+ (#/μL) Median (CD34+ cells [6]; Pooled B + C, plerixafor alone, MGTA-145 dose 0): 20 #/μL
- Peak CD34+ (#/μL) Median (CD34+ cells [6]; [23]): 23 #/μL
- Percent ≥20/μL peak CD34+ (CD34+ cells [6]; [23]): 56%
- Tmax (time of the peak CD34+ level) Median (CD34+ cells [6]; plerixafor alone): 8 h
- Peak CD34+/μL (FC vs. baseline) Median (CD34+ cells [6]; [24]): 15
- Peak CD34+/μL Median (CD34+ cells [6]; [24]): 20 µL⁻¹
- Peak CD34+CD90+CD45RA− mobilization (median) (CD34+CD90+CD45RA− cells [7]; plerixafor alone): 8 cells/μL

B1: G-CSF: standard mobilization agent, five days of Filgrastim (G-CSF) (protein, UniProt P09919 31-207, looked up)
Granulocyte …: TPLGPASSLPQSFLLKCLEQVRKIQGDGAALQEKLVSECATYKLCHPEELVLLGHSLGIPWAPLSSCPSQALQLAGCLSQLHSGLFLYQGLLQALEGISPELGPTLDTLQLDVADFATTIWQQMEELGMAPALQPTQGAMPAFASAFQRRAGGVLVASHLQSFLEVSYRVLRHLAQP
modifications: filgrastim
- Increase in neutrophil activation markers [10]: ~2.7 fold
- Tolerability [11]: Majority with bone pain,
- Graft CD3+, median [8, 19]: 2.5e+08 kg⁻¹
- Graft CD4+, median [8, 19]: 1.5e+08 kg⁻¹
- Graft CD8+, median [8, 19]: 7e+07 kg⁻¹
- Graft CD19+, median [8, 19]: 5e+07 kg⁻¹
- Graft CD34+, median [8, 19]: 4.2e+06 kg⁻¹
- Graft CD56+, median [8, 19]: 1e+07 kg⁻¹
- Graft CD3+, median [8, 20]: 1.3e+08 kg⁻¹
- Graft CD4+, median [8, 20]: 1.1e+08 kg⁻¹
- Graft CD8+, median [8, 20]: 4e+07 kg⁻¹
- Graft CD34+, median [8, 20]: 4.2e+06 kg⁻¹
- Graft CD56+, median [8, 20]: 2e+07 kg⁻¹
- TNC/kg donor weight, median (range) ([8]; G-CSF, N = 40 healthy donors, Singhal et al, BMT 2000): 7.2 (3.2-14.0) ×10^8 cells
- Frequency of CD3+ T cells in graft, median [8, 25]: 45.3 % of CD45+
- Frequency of CD4+ T cells in graft, median [8, 25]: 29.8 % of CD45+
- Frequency of CD8+ T cells in graft, median [8, 25]: 11.8 % of CD45+
- Frequency of CD19+ B cells in graft, median [8, 25]: 10.5 % of CD45+
- Frequency of CD56+ NK cells in graft, median [8, 25]: 3.2 % of CD45+
- Frequency of Tregs in graft, median [8, 25]: 3.5 % of CD4+ T cells
- Frequency of iNKT cells in graft, median [8, 25]: 0.04 % of CD3+
